Experimental data: PubChem BioAssay AID1902 (Broad Institute, 2009)
pEC50: −log10 of the molar value. Activity calls are given as the source filed them.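 The calls were made as follows: active = EC50 no more than a set limit of log units above the highest dose; inactive = the rest.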

Target: S. pyogenes SKKanGAS, kanamycin survival, BacTiterGlo, 6 h
Assay: S. pyogenes SKKanGAS kanamycin growth inhibitors – SKKanGAS strain, luminescence, dose confirmation, streptokinase promoter inhibitor project, dose response (AID 1902);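 also: lower survival reflects blocked streptokinase promoter driving kanamycin resistance gene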

Structure (SMILES) | pEC50 | EC50
Cn1cnnc1SCc1ccc(C(=O)N=Nc2c(O)n(Cc3ccc(Cl)cc3)c3ccccc23)cc1 | 5.35 | –
O=C(COC(=O)c1ccccc1)Nc1ccccc1Sc1ccccc1 | 5.05 | –
CCOc1ccc(NS(=O)(=O)c2cc(NC(=O)c3ccc(C)cc3)ccc2Cl)cc1 | 5.43 | –
Cc1[nH][nH]c(=O)c1C(c1c(C)[nH][nH]c1=O)c1cn(Cc2ccc(Cl)c(Cl)c2)c2ccccc12 | 5.51 | –
O=C(NCc1ccccn1)C(=O)Nc1nc(C23CC4CC(CC(C4)C2)C3)cs1 | 5.78 | –
NC(=O)c1ccc(NC(=O)COC(=O)c2c3c(nc4ccccc24)/C(=C\c2ccc4c(c2)OCO4)CCC3)cc1 | 5.28 | –
COc1ccc(S(=O)(=O)N2CCOC2CNC(=O)C(=O)NCc2ccccc2Cl)cc1 (stereo not given) | – | > 15 µM (inactive)
Cc1cc(/C=C2\C(=N)N3N=C(S(C)(=O)=O)SC3=NC2=O)c(C)n1Cc1ccccc1 | 5.32 | –
CSc1c(SCc2ccccc2)cnn(Cc2ccccc2)c1=O | 5.40 | –
O=c1cc(-c2ccccc2)[nH]n1-c1nc2ccccc2s1 | 5.57 | –
Cc1ccc(C(=O)Nc2nc(-c3ccccc3)c(-c3ccccc3)o2)cc1 | 6.27 | –
O=C(Nc1nnc(-c2ccc(Br)cc2)o1)c1cccc(N2C(=O)CCC2=O)c1 | 5.87 | –
O=C(Nc1cccc(F)c1)N1CCCCCC1 | – | > 15 µM (inactive)
O=[N+]([O-])c1ccc(Nc2nc(NCCO)nc(N3CCCC3)n2)cc1 | 5.23 | –
COc1ccc(/C=C/C(=O)NC(=S)NNC(=O)[C@H]2C[C@@H]2c2ccccc2)cc1OC | 6.44 | –
C=CCOC(=O)C1=C(C)NC(SCC)=C(C#N)C1c1ccc(Cl)cc1 (stereo not given) | 5.23 | –
CCOC(=O)C1=C(C)N=c2s/c(=C\c3ccc(O)c([N+](=O)[O-])c3)c(=O)n2C1c1ccccc1OC (stereo not given) | 5.16 | –
Cc1onc(-c2ccccc2)c1C(=O)NNC(=S)NC(=O)c1ccc(Br)cc1 | 6.76 | –
CCCCC[n+]1ccn(C2=C([O-])c3ccccc3C(=O)/C2=N\S(=O)(=O)c2ccc(Br)cc2)c1 | 5.54 | –
Cc1ccc(C(C)C)c(OCc2ccc(C(=O)N/N=C/c3ccc(O)cc3O)cc2)c1 | 5.90 | –
CC(=O)OCC1=C(C(=O)O)N2C(=O)C(NC(=O)C(C)Cn3nc(C)c(Cl)c3C)C2SC1 (stereo not given) | 5.53 | –
OCCCCC#Cc1c(-c2ccsc2)sc2ccccc12 | 5.11 | –
CCc1cc2c(COC(=O)c3cccc(NS(C)(=O)=O)c3)cc(=O)oc2cc1O | 5.11 | –
COc1ccc2c(c1)c(CC(=O)NCc1cc([N+](=O)[O-])ccc1O)c(C)n2C(=O)c1ccc(Cl)cc1 | 5.00 | –
Cc1cccc(NC(=O)c2cc3n(n2)C(C(F)(F)F)CC(c2ccc4c(c2)OCO4)N3)c1 (stereo not given) | 5.14 | –

Structure (SMILES) | pEC50 | EC50
CCOC(=O)/C(=N\Nc1ccc(OC)cc1)c1csc(Nc2ccccc2)n1 | 5.61 | –
Cc1ccccc1NC1=C/C(=N\S(=O)(=O)c2ccc(C(=O)O)cc2)c2ccccc2C1=O | 5.72 | –
Cc1ccn2c(Nc3ccccc3C)c(-c3ccccn3)nc2c1 | 5.66 | –
O=c1c2ccccc2c(-c2ccccc2)nn1Cc1c(Cl)cccc1Cl | 5.22 | –
COc1ccc(-c2[nH]ncc2N=Nc2cc(C)cc(C)c2)cc1 | 5.37 | –
CCOC(=O)c1c(NC(=O)c2c(N)n(CCCOC)c3nc4ccccc4nc23)sc2c1CCCC2 | 5.05 | –
CCN(CC)c1ccc(/C=N/NC(=O)CCC(=O)NCc2ccccc2)c(O)c1 | 5.47 | –
CC(=O)c1ccc(NC(=S)Nc2ccc(Br)c(Cl)c2)cc1 | 5.21 | –
Cc1ccc(Cn2c(C(CO)Nc3nc(-c4ccc(F)cc4)cs3)nc3ccccc32)cc1 (stereo not given) | 5.48 | –
Oc1ccc2ccccc2c1/C=N/Nc1nnc(-c2ncc[nH]2)c2ccccc12 | 5.81 | –
COc1ccc(-c2nc(-c3ccc4c(c3)OCO4)[nH]c2-c2ccc(OC)cc2)cc1 | 5.33 | –
C=C(C)COc1ccc(-c2n[nH]c(C)c2-c2ccc(Br)cc2)c(O)c1 | 5.66 | –
COc1ccc(C(NC(C)=O)c2cc(Cl)c3cccnc3c2O)cc1OC (stereo not given) | 5.28 | –
O=c1c2cc(Br)ccc2nc(-c2cccc(Cl)c2)n1O | 5.96 | –
O=C(O)CC/C(=C\c1cc2c(cc1Br)OCO2)c1nc2ccccc2s1 | 4.98 | –
O=C1c2ccccc2CCC12N=NCC2c1ccc(Br)cc1 (stereo not given) | 4.83 | –
CCc1nn(CCCC(=O)NCc2ccccc2Br)c(=O)c2cc3occc3n12 | 5.59 | –
CCCc1cc(NCc2ccccn2)n2nc(C)c(-c3ccccc3)c2n1 | 5.19 | –
O=C(Nc1cccc(-c2nc3ccccc3[nH]2)c1)c1ccc(C(=O)Nc2cccc(-c3nc4ccccc4[nH]3)c2)cc1 | – | > 15 µM (inactive)
COc1ccc(C(=O)NCC(=O)OCC(=O)N2N=C(c3ccc(Cl)cc3)CC2c2ccco2)cc1OC (stereo not given) | 4.81 | –
Cc1cc(C)c2nc(NNC(=O)c3ccc(S(=O)(=O)N4CCCCC4)cc3)sc2c1 | 5.73 | –
COc1c(N2CCNC(C)C2)c(F)cc2c(=O)c(C(=O)O)cn(C3CC3)c12 (stereo not given) | 6.18 | –
Cc1cc(C)n(C(=O)/C(C#N)=N/Nc2cc(Cl)cc(Cl)c2)n1 | 5.75 | –
O=C(NC(Cc1c[nH]c2ccccc12)C(=O)N/N=C/c1cccc2ccccc12)c1cccs1 (stereo not given) | 5.27 | –
C=C(C)COc1ccc(-c2[nH]ncc2Oc2cccc(OC)c2)c(O)c1 | 5.23 | –
